The text below walks through data of article PMC5863483, “Low HLA binding of diabetes-associated CD8+ T-cell epitopes is increased by post translational modifications” (BMC Immunology, 2018).

For one test, the target named is HLA-A*02:01 (Homo sapiens, UniProt P04439, D140Y/D185E/D98H/E176V/E277Q/G131W/G231S/I119V/I121R/I166T/I218V/L300P/L318F/N151K/N90K/P208A/P217A/Q86G/Q94H/R138H/R169H/T345S). As to the kind of experiment: HLA-peptide competition binding assay, A*02:01.
For a further test, the target named is HLA-A*24:02 (Homo sapiens, UniProt P04439, D101N/D140Y/D185E/E176V/E190D/F33S/G103R/G107R/I119L/I121M/I306V/K335N/L105A/L180Q/L300P/N151K/N90K/Q86E/Q94H/R106L/R138H/R89G/T104I/T345S/V100E/W191G/Y123F). In words: HLA-peptide competition binding assay, A*24:02. To be noted: read-out: IC50 nM, target assay A*24:02.
For a further test, the target named is HLA-B*08:01 (Homo sapiens, UniProt P01889, A93T/A95T/D138N/E176V/E187T/K202T/Q94N/R180D/S35A/V36M/Y33D/Y91F). In words: biochemical. How it is done:
The 138 peptides were tested for their capacity to bind their respective HLA class I restricting allele(s) in classical competition assays based on the inhibition of the binding of high affinity radiolabeled ligands to purified major histocompatibility (MHC) molecules, as described in the Methods. In instances where the precise restriction was not available, binding to the most common representative subtype from the same allele family was assayed (e.g., A*02:01 for A02; B*07:02 for B7; A*03:01 for A03, etc.). For epitopes reported to be restricted by multiple alleles, each restriction is shown separately.
Peptide-MHC affinities were measured using classical competition assays based on the inhibition of binding of a high affinity radiolabeled ligand to purified HLA class I molecules, as previously described. Briefly, 0.1–1 nM of radiolabeled peptide is co-incubated at room temperature with purified MHC in the presence of a cocktail of protease inhibitors. Following a two-day incubation, MHC bound radioactivity is determined by capturing MHC/peptide complexes on W6/32 (anti-HLA class I) mAb coated Lumitrac 600 plates (Greiner Bio-one, Frickenhausen, Germany), and bound cpm measured using the TopCount (Packard Instrument Co., Meriden, CT) microscintillation counter. […] Under the conditions utilized, where [label] < [MHC] and IC50 ≥ [MHC], measured IC50 values are reasonable approximations of true Kd. Each competitor peptide is tested at six different concentrations covering a 100,000-fold range, and in three or more independent experiments. As a positive control, the unlabeled version of the radiolabeled probe is also tested in each experiment.

A further test deals with HLA-A*01:01 (Homo sapiens, UniProt P04439, A114D/A174V/A182V/D101N/D185E/E176A/E190D/L180R/Q94H/R68K/S129P/T187R/V100A/V91M/W191G). As to the kind of experiment: HLA-peptide competition binding assay, A*01:01. To be noted: read-out: IC50 nM, target assay A*01:01.
The target of the next test is HLA-A*03:01 (Homo sapiens, UniProt P04439). In words: HLA-peptide competition binding assay, A*03:01.
The next test concerns the target HLA-A*11:01 (Homo sapiens, UniProt P04439, A114D/D185E/E176A/F33Y/L180Q/S129P/T187R). In words: HLA-peptide competition binding assay, A*11:01. Particulars: read-out: IC50 nM, target assay A*11:01.
The target in another test is HLA-B*07:02 (Homo sapiens, UniProt P01889). As to the kind of experiment: HLA-peptide competition binding assay, B*07:02. Particulars: read-out: IC50 nM, target assay B*07:02.
Another test addresses HLA-B*51:01 (Homo sapiens, UniProt P01889, A329T/A93T/A95T/C349S/D138N/D201E/D98Y/E187L/E204Q/E69T/G107R/I218V/K202T/L105A/L119W/N104I/Q94N/R106L/R155S/R180L/S101N/S121T/S35A/S48A/V306I/V36M/Y195H/Y91F). In words: HLA-peptide competition binding assay, B*51:01. To be noted: read-out: IC50 nM, target assay B*51:01.
The next test addresses HLA-B*35:01 (Homo sapiens, UniProt P01889, A329T/A93T/A95T/C349S/D201E/D98Y/E176V/E187L/E204Q/E69T/I218V/K202T/L119I/Q94N/R155S/R180L/S121R/S35A/S48A/T118I/V127L/V306I/V36M/Y140S/Y91F). In words: HLA-peptide competition binding assay, B*35:01. Particulars: read-out: IC50 nM, target assay B*35:01.
A further test concerns the target HLA-B*18:01 (Homo sapiens, UniProt P01889, A329T/A93T/A95T/C349S/D201E/D54G/D98Y/E176V/E187T/E204Q/E69T/K202T/Q94N/R155S/R180L/S121R/V306I/Y140S/Y195H/Y33H/Y91S). As to the kind of experiment: HLA-peptide competition binding assay, B*18:01. Particulars: read-out: IC50 nM, target assay B*18:01.
Where [1] appears, read: read-out: A*02:01 binding (IC50 nM) WT.
Where [2] appears, read: read-out: IC50 nM, target assay A*02:01.
The mark [3] stands for this setting: read-out: IC50 nM, target assay A*03:01.
Where [4] appears, read: unmodified (WT) insulin peptide, competition binding assay, a dash indicates IC50 >40,000 nM, read-out: A*02:01 binding (IC50 nM) WT.

Where two headings read alike, the source gives them in different places. Where no end group is shown, it is not given here.

With `CC(C)C[C@H](NC(=O)[C@H](Cc1ccc(O)cc1)NC(=O)[C@@H](N)CC(C)C)C(=O)N[C@H](C(=O)N[C@@H](CS)C(=O)NCC(=O)N[C@@H](CCC(=O)O)C(=O)N[C@@H](CCCNC(=N)N)C(=O)NCC(=O)N[C@@H](Cc1ccccc1)C(=O)O)C(C)C` [reference compound], the IC50 is 13400 nM on HLA-A*02:01 (setting [1]) and 5250 nM on HLA-A*24:02.
On to ALWMRLLPL [reference compound], for which the values for the IC50 at HLA-A*02:01 (setting [2]) and at HLA-B*08:01 were 218 nM and 107 nM, respectively.
Regarding ALWGPDPAAAF, the IC50 on HLA-A*01:01 is above 40000 nM; at HLA-A*24:02, 15100 nM.
PLALEGSLQK displayed an IC50 at HLA-A*03:01 above 40000 nM.
For MFPEVKEKG, the IC50 on HLA-A*11:01 is above 40000 nM.
On the same count and under the same terms, as for RFKMFPEVK, the figure is 18300 nM.
LVCGERGFFY: the IC50 at HLA-A*02:01 (setting [1]) is 23200 nM; on HLA-A*01:01, above 40000 nM; on HLA-A*03:01 (setting [3]), 27400 nM; on HLA-A*11:01 it was 27200 nM.
As to ALYLVCGER, the IC50 came out at 1790 nM at HLA-A*02:01, 2790 nM on HLA-A*03:01 and 28300 nM on HLA-A*11:01.
`CC(C)C[C@H](NC(=O)[C@H](CCC(N)=O)NC(=O)[C@H](CC(N)=O)NC(=O)[C@H](Cc1ccccc1)NC(=O)[C@H](Cc1ccc(O)cc1)NC(=O)[C@H](CCCNC(=N)N)NC(=O)[C@@H]1CCCN1C(=O)[C@@H](N)Cc1c[nH]cn1)C(=O)N[C@@H](CO)C(=O)N[C@H](C(=O)O)[C@@H](C)O`: the IC50 on HLA-B*07:02 was 1250 nM.
Turning to LPLLALLAL [LPLLALLAL], the IC50 was 1160 nM at HLA-B*51:01, 12300 nM on HLA-B*35:01 and 610 nM at HLA-B*07:02.
Regarding PLLALLALWG, the IC50 on HLA-A*03:01 (setting [3]) was above 40000 nM.
For the compound FYTPKTRRE [reference compound], the IC50 on HLA-A*02:01 (setting [4]) was above 40000 nM; at HLA-B*08:01, 13000 nM.
Consider ERGFFYTPK [reference compound], for which the IC50 at HLA-A*02:01 (setting [4]) and at HLA-A*03:01 (setting [3]) was above 40000 nM each time.
With GSHLVEALY [reference compound], the IC50 stood at 3960 nM at HLA-A*02:01 (setting [1]) and 30300 nM at HLA-A*01:01.
With VCGERGFFYT, the IC50 on HLA-A*02:01 (setting [2]) is above 40000 nM; at HLA-A*02:01 (setting [4]), above 40000 nM; on HLA-A*01:01 it was above 40000 nM; on HLA-B*08:01, above 40000 nM; at HLA-B*18:01 it was 626 nM.
With SASVQRADTSL, the IC50 on HLA-B*07:02 came to 11 nM.
The same measure, in the same setting: as for IPSDLERRIL, the figure is 3860 nM.
Regarding “WMRLLPLLAL [WMRLLPLLAL, reference compound]”, the IC50 is 654 nM on HLA-A*02:01 and 2360 nM on HLA-B*07:02.
With SLQPLALEG [reference compound], the IC50 on HLA-A*02:01 (setting [2]) and at HLA-A*03:01 (setting [3]) was above 40000 nM each time.
For the compound LWMRLLPLL [reference compound], the results for the IC50 at HLA-A*02:01 (setting [1]) and at HLA-A*24:02 were 266 nM and 545 nM, respectively.
On to GERGFFYT, for which the IC50 on HLA-A*01:01 is above 40000 nM; at HLA-B*08:01, 1380 nM.
As for APVIKARMM, the IC50 on HLA-B*07:02 was determined as 18200 nM.
As for RLLPLLALL [reference compound], the IC50 was determined as 145 nM on HLA-A*02:01 (setting [2]) and 10200 nM at HLA-A*24:02.
TSEHSHFSL: the IC50 on HLA-B*35:01 was above 40000 nM.
Regarding ALWMRLLPLL, the figures for the IC50 on HLA-A*02:01 (setting [2]), at HLA-B*08:01 and on HLA-A*24:02 were 190 nM, 33 nM and 6180 nM, respectively.

The term IC50 denotes the concentration at which inhibition is half-maximal.
